This is an account of results in ChEMBL document CHEMBL1201862, “PubChem BioAssay data set” (2004).

Activity calls are given as the source filed them.

The target in assay [1] is Peroxisome proliferator-activated receptor gamma/Nuclear receptor corepressor 2 (Homo sapiens, UniProt P37231+Q9Y618). It counts as functional.
Assay [2] concerns the target 1-phosphatidylinositol 4,5-bisphosphate phosphodiesterase gamma-1 (Homo sapiens, UniProt P19174). Kind of assay: Counterscreen for inhibitors of phospholipase C isozymes (PLC-B3): Fluorescence-based biochemical high throughput dose response assay to identify inhibitors of phospholipase C isozymes (PLC-gamma1). (The purpose of a counterscreen is to sort out artefacts and off-target activity.)

Assay [3] has as its target T1, Tyrosine-protein phosphatase non-receptor type 7 (Homo sapiens, UniProt P35236).
T1 sequence (P35236 whole entry): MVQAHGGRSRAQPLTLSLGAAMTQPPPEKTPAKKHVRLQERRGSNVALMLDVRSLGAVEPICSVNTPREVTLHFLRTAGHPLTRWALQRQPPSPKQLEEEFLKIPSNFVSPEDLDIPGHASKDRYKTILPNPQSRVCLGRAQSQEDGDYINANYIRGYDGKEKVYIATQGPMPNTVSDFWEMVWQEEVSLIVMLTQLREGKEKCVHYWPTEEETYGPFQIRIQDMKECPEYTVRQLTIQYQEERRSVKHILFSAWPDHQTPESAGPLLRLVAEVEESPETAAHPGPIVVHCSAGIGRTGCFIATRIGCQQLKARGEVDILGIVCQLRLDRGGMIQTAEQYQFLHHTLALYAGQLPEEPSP
It counts as functional.

The target of assay [4] is T2, Tyrosine-protein phosphatase non-receptor type 22 (Homo sapiens, UniProt Q9Y2R2).
T2 sequence (Q9Y2R2 whole entry): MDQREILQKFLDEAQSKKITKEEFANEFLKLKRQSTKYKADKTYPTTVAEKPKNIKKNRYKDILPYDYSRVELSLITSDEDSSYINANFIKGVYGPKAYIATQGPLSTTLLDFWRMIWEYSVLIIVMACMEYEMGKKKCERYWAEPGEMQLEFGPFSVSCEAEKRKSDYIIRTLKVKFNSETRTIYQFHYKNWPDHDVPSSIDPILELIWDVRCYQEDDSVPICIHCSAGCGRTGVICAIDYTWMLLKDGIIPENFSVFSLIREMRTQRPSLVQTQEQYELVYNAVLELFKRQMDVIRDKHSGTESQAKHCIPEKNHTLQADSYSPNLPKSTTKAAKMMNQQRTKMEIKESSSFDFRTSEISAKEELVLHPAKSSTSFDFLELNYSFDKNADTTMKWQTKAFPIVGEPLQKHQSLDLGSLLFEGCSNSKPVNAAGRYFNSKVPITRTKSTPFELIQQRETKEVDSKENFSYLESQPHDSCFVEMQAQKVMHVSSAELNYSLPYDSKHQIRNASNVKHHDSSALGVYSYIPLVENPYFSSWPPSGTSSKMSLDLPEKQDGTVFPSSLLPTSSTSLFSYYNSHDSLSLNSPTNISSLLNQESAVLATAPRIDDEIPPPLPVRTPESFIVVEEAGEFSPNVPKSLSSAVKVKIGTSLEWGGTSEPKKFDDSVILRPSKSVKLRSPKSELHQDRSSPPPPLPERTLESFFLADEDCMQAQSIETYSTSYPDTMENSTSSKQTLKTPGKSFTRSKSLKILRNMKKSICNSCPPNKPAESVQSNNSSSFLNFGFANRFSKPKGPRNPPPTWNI
It counts as functional.

Assay [5] deals with T2, Tyrosine-protein phosphatase non-receptor type 22. It counts as functional. The source holds these as a separate data set.
Assay [6] deals with Large T antigen (Simian virus 40, UniProt P03070). The class given is functional, Betapolyomavirus macacae.
In assay [7] the target is Dual specificity protein phosphatase 3 (Homo sapiens, UniProt P51452). Kind of assay: VHR1 phosphatase inhibitors, biochemical (AID 1878).
Chain of Dual specificity protein phosphatase 3 (P51452 whole entry): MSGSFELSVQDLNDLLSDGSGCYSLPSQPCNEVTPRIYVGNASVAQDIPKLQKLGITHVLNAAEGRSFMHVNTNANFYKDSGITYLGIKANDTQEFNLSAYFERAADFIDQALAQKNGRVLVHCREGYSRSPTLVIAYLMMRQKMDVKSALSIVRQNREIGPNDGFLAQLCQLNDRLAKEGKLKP
Assay [8] relates to HeLa. Put plainly: HeLa cell cytotoxicity, dose response, cytotoxicity control, 24 h, cherry-picked samples (AID 504726).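 Also: potency for cytotoxicity as loss of luminescence signal.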 The class given is functional, cell-based. Conditions: Homo sapiens.
The target in assay [9] is Intestinal-type alkaline phosphatase (Mus musculus, UniProt P24822). Kind of assay: mouse intestinal alkaline phosphatase activators, dose response, biochemical, luminescence, uHTS hits (AID 488783). The class given is functional.
Chain of Intestinal-type alkaline phosphatase (P24822 whole entry): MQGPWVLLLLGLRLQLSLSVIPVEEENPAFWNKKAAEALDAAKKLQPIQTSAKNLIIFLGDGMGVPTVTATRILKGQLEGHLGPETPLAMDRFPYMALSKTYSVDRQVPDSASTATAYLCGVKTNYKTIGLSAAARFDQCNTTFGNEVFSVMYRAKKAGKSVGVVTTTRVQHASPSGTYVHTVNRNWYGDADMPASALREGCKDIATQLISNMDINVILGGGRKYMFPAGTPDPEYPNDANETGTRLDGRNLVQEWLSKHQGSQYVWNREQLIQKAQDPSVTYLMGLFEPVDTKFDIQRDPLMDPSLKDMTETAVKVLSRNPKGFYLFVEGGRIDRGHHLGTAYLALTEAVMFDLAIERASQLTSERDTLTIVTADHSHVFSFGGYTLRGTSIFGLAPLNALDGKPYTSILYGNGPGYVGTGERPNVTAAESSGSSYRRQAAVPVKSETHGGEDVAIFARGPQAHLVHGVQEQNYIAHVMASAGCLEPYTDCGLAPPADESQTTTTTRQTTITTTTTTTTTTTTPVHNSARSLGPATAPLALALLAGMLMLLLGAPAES
Assay [10] concerns the target T3, Alkaline phosphatase, tissue-nonspecific isozyme (Homo sapiens, UniProt P05186).
T3 sequence (P05186 whole entry): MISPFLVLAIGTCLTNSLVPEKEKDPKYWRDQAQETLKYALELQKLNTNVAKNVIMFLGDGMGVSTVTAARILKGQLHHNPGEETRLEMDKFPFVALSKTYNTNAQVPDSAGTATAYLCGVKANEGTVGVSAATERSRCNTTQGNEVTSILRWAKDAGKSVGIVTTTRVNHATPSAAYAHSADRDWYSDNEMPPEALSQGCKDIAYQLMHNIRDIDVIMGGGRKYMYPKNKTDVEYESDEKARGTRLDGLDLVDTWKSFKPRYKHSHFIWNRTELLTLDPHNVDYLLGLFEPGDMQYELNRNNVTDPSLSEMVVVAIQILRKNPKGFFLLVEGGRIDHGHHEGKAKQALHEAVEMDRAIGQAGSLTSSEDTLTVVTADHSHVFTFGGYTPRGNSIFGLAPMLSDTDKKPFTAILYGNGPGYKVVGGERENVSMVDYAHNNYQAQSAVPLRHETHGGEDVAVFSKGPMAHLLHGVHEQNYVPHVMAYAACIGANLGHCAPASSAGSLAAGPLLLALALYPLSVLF
Kind of assay: TNAP enzyme activators, dose response, selectivity assay for mouse IAP activator project, biochemical, TNAP isozyme, mouse IAP uHTS hits (AID 488880). The class given is functional.

The target of assay [11] is 72 kDa type IV collagenase (Homo sapiens, UniProt P08253). Put plainly: Dose Response validation of uHTS RPN11 inhibitor hits using a MMP-2 Fluorescence assay. The class given is functional.
Chain of 72 kDa type IV collagenase (P08253 whole entry): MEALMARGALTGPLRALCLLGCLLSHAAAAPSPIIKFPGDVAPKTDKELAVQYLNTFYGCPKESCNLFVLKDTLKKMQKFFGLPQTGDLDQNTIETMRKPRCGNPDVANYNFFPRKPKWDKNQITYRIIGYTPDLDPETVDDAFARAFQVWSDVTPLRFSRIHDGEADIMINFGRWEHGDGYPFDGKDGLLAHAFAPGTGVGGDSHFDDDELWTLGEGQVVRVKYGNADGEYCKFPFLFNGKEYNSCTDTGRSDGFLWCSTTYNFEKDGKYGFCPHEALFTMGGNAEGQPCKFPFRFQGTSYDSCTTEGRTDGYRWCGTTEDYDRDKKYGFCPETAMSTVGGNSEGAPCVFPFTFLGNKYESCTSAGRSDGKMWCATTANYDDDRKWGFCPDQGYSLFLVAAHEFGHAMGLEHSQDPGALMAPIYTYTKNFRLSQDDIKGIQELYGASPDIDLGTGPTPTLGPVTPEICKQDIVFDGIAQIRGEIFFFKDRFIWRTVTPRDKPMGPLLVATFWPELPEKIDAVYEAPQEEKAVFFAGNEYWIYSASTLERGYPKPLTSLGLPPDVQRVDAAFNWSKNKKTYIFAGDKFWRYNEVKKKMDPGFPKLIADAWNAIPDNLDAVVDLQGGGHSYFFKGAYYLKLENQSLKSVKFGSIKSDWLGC
Assay [12] has as its target T4, Small ubiquitin-related modifier 2 (Homo sapiens, UniProt P61956). Put plainly: SUMO2–SIM peptide binding inhibitors, dose response, selectivity assay for SUMO1 interaction inhibitor project, biochemical, fluorescence polarization, uHTS hits (AID 624385). It counts as functional. Conditions: read-out: IC50_Mean.
Assay [13] addresses Small ubiquitin-related modifier 1 (Homo sapiens, UniProt P63165). Kind of assay: inhibitors of SUMO1 peptide binding, dose response, biochemical, fluorescence polarization, uHTS hits (AID 624382). It counts as functional. Conditions: read-out: IC50_Mean. (In fluorescence polarisation assays a small probe gives low polarisation when free and higher when bound to something large.)

For assay [14], the target named is T4, Small ubiquitin-related modifier 2. Put plainly: inhibitors of SUMO2 protein-protein interaction, dose response, selectivity assay for SUMO1 interaction inhibitor project, biochemical, FRET, human SUMO2, uHTS hits (AID 624384). It counts as functional. Conditions: read-out: IC50_Mean.
Assay [15] concerns the target T5, Sentrin-specific protease 8 (Homo sapiens, UniProt Q96LD8).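 Also: kinetic enzyme assay of SENP8 cleaving a Nedd8 protein substrate, dose-response confirmation of screening hits.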
T5 sequence (Q96LD8 whole entry): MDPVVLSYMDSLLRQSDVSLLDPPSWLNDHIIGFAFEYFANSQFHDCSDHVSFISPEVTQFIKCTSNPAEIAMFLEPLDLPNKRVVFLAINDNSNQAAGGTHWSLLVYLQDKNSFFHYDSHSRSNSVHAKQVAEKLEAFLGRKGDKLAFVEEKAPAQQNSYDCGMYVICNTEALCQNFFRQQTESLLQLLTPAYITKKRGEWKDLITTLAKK
It counts as functional.

The target of assay [16] is Photoreceptor-specific nuclear receptor (Homo sapiens, UniProt Q9Y5X4). It counts as functional, cell-based.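 Also: CHO-S cells with Gal4-NCOR and VP16-NR2E3 two-hybrid luciferase reporter.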
Chain of Photoreceptor-specific nuclear receptor (Q9Y5X4 whole entry, the tested form may be a part): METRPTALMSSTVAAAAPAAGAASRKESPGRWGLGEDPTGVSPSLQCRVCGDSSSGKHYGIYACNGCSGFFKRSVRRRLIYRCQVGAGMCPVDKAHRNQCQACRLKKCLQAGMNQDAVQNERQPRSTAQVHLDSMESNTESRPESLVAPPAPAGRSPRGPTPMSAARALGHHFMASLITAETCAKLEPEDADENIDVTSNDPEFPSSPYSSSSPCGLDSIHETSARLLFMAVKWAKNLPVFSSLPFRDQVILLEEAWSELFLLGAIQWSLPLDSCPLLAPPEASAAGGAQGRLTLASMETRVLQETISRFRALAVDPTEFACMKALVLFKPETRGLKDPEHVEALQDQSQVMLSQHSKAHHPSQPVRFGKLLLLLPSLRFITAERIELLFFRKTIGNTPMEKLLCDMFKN

T4 sequence (P61956 whole entry): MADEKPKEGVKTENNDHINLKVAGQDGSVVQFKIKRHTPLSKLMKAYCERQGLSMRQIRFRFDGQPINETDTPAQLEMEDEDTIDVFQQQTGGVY
Chain of Peroxisome proliferator-activated receptor gamma/Nuclear receptor corepressor 2 (P37231 whole entry): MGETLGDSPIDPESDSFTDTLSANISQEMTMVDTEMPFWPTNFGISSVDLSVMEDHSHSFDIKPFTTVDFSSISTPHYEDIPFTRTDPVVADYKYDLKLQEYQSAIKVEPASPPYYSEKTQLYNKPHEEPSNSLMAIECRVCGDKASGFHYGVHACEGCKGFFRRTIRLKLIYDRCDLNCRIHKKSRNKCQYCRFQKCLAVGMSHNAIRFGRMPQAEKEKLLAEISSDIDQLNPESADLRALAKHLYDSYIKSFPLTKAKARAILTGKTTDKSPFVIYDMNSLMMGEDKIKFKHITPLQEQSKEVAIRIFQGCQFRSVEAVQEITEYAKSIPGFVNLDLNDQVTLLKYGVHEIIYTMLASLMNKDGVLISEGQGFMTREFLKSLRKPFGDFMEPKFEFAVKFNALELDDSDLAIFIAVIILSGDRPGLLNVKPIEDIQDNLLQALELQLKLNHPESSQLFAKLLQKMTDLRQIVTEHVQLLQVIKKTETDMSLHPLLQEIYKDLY
Chain of Peroxisome proliferator-activated receptor gamma/Nuclear receptor corepressor 2 (Q9Y618 whole entry): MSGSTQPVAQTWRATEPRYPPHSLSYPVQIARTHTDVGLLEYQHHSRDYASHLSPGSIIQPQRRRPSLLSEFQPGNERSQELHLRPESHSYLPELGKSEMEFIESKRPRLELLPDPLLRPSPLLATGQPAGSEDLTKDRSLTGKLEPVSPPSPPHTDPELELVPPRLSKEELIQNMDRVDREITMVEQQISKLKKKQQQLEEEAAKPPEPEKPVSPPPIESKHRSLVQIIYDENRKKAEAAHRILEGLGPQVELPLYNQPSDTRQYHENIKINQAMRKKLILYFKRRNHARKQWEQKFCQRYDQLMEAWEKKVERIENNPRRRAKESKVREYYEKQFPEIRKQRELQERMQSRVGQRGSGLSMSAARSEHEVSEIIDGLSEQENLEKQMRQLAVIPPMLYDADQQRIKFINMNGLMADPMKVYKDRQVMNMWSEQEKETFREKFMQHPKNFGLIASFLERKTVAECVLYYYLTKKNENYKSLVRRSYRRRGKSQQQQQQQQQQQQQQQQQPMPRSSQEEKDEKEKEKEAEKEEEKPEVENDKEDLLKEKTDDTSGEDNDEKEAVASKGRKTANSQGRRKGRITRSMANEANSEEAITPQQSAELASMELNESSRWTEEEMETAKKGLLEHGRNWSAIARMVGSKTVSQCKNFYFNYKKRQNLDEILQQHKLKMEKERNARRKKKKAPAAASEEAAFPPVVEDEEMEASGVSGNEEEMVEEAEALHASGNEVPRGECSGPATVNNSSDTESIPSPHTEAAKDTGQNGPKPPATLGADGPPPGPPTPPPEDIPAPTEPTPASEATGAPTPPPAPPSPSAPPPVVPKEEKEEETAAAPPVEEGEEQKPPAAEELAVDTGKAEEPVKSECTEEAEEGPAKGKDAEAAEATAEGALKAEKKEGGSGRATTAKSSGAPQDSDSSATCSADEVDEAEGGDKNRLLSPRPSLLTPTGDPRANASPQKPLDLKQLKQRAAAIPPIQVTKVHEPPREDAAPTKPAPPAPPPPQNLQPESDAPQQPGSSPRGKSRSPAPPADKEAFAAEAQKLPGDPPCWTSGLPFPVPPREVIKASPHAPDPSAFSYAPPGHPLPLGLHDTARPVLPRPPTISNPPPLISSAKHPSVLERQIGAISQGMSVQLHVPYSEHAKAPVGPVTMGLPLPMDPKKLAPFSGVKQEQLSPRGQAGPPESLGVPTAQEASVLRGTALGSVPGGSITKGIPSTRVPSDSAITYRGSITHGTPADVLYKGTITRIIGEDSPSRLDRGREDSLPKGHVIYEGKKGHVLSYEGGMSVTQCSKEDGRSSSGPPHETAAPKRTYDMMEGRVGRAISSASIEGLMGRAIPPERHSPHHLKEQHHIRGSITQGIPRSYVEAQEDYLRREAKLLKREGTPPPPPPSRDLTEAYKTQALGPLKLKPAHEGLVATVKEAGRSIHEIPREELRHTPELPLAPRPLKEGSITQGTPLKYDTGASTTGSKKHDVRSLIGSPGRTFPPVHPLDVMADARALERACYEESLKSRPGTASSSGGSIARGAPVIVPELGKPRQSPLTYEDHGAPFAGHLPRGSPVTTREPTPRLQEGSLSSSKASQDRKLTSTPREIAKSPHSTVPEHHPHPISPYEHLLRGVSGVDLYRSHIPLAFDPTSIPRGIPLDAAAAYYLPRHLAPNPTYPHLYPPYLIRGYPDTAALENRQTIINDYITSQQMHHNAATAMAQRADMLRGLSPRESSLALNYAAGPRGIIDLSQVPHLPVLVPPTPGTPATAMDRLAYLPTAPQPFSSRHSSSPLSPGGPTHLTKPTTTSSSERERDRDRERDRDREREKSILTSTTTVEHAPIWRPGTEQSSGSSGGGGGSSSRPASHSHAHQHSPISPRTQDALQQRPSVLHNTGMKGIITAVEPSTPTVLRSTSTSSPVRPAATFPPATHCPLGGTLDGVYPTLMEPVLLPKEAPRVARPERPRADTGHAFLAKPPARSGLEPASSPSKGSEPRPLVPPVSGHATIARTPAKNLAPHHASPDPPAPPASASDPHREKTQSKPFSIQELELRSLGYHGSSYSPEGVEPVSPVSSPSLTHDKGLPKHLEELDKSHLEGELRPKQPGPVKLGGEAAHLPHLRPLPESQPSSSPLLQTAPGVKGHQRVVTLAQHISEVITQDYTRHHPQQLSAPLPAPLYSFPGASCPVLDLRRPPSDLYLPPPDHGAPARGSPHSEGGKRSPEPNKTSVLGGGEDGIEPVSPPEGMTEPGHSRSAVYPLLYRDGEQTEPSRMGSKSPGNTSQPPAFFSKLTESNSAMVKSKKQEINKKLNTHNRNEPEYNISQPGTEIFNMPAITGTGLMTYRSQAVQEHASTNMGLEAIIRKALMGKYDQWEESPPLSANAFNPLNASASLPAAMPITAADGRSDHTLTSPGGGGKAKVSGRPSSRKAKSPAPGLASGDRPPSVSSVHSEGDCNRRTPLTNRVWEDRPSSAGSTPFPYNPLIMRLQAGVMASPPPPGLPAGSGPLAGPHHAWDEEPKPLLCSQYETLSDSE
Chain of Small ubiquitin-related modifier 1 (P63165 whole entry): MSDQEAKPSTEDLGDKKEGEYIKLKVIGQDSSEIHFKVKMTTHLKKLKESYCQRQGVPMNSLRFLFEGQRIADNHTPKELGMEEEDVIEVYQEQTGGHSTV

On to `COC(=O)c1cc(C)nc2c1C(=O)C(=O)C=C2N1CCOCC1`, for which the IC50 in assay [1] was > 39.8 µM (not active); in assay [2], 13.7 µM (inactive).
On to `N#Cc1c(N2CCCC2)nc(N)c2c(N)nc(N3CCCC3)cc12`, for which the IC50 in assay [3] is 74.3 µM (active); in assay [4] it was > 79.4 µM (inactive); in [5] it was > 79.4 µM (inactive).
Broadly, the AC50 is the midpoint of the concentration-response curve, whichever way the signal moves. Usually EC50 stands for the midpoint of the concentration-response curve. With `NS(=O)(=O)c1cc(C(=O)NC2CCSc3ccccc32)ccc1Cl` (stereo unspecified), the IC50 in [6] was 62.1 µM (active); in assay [7], < 1.23 µM (inactive); in assay [11], 2.68 µM (active); in [12], 6.65 µM (active); in [13], 4.11 µM (active); in [14], 1.75 µM (active). For the same compound, in [8], the AC50 was > 350 µM (inactive). For the same compound, the EC50 in [9] was 5.57 µM (active); in [10], 68.1 µM (active).
`CCOC(=O)C1=C(C)OC2(O)c3ccccc3C(=O)C12O` (stereo unspecified): in assay [15], the IC50 is 0.284 µM (active).
For the compound `O=C1c2ccccc2C(=O)c2[nH]c(O)nc21`, the IC50 in [16] was 4.48 µM (active).
